# Measured values reported in US20240217978A1 (CHONG KUN DANG PHARMACEUTICAL CORP., priority 2021, published 2024).
# pIC50: −log10 of the molar value.
# Target: human adenosine A2a receptor (Homo sapiens (Human), UniProt P29274)
# Experiment: A2a receptor binding affinity, [3H]-NECA radioligand binding test
# Conditions: [3H]-NECA 37 nM; membrane from HEK-293 cells transfected with human adenosine A2a receptor
# In short: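 Membranes from HEK-293 cells expressing human A2a receptor were incubated with [3H]-NECA (final 37 nM) and compound for 1 h at room temperature in 50 mM Tris, 10 mM MgCl2, 1 mM EDTA, pH 7.4. Bound ligand was filtered on PEI-coated plates and counted by scintillation to derive IC50 (μM).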
# human adenosine A2a receptor, sequence (P29274 whole entry): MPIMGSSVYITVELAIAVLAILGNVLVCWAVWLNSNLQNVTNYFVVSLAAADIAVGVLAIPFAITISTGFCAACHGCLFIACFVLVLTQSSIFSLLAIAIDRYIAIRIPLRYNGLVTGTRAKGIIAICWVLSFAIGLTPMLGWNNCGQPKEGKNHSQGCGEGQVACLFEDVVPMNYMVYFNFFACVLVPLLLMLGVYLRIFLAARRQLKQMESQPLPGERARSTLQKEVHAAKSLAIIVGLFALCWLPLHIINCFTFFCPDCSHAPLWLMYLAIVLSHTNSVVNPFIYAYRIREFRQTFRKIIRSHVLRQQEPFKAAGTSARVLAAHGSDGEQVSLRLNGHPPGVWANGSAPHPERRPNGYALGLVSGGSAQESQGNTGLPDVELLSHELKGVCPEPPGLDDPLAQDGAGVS
row,pIC50,Structure (SMILES)
1,8.15,"Nc1nc(N2CCC[C@H]2C(=O)N2CCN(CC(F)F)CC2)nc2nc(-c3ccco3)nn12 [Example 223, (S)-(1-(7-amino-2-(furan-2-yl)-[1,2,4]triazolo[1,5-a][1,3,5]triazin-5-yl)pyrrolidin-2-yl)(4-(2,2-difluoroethyl)piperazin-1-yl)methanone]"
2,7.62,"CCCN1CCN(C(=O)[C@@H]2CCCN2c2nc(N)n3nc(-c4ccco4)nc3n2)CC1 [Example 135, (S)-(1-(7-amino-2-(furan-2-yl)-[1,2,4]triazolo[1,5-a][1,3,5]triazin-5-yl)pyrrolidin-2-yl)(4-propylpiperazin-1-yl)methanone]"
3,7.82,"CC(F)(F)CN1CCC(C2CCN(C(=O)[C@@H]3CCCN3c3cc4nc(-c5ccco5)nn4c(N)n3)CC2)CC1 [Example 394, (S)-(1-(5-amino-2-(furan-2-yl)-[1,2,4]triazolo[1,5-c]pyrimidin-7-yl)pyrrolidin-2-yl)(1′-(2,2-difluoropropyl)-[4,4′-bipiperidin]-1-yl)methanone]"
4,8.22,"CC(C)(CN1CCN(C(=O)[C@@H]2CCCN2c2nc(N)n3nc(-c4ccco4)nc3n2)CC1)C(F)(F)F [Example 282, (S)-(1-(7-amino-2-(furan-2-yl)-[1,2,4]triazolo[1,5-a][1,3,5]triazin-5-yl)pyrrolidin-2-yl)(4-(3,3,3-trifluoro-2,2-dimethylpropyl)piperazin-1-yl)methanone]"
5,7.96,"Nc1nc(N2CCC[C@H]2C(=O)N2CCN(C(=O)CC(F)(F)F)CC2)nc2nc(-c3ccco3)nn12 [Example 73, 1-(4-((7-amino-2-(furan-2-yl)-[1,2,4]triazolo[1,5-a][1,3,5]triazin-5-yl)-L-prolyl)piperazin-1-yl)-3,3,3-trifluoropropan-1-one]"
6,7.82,"Cc1ccc(-c2nc3nc(N4CCC[C@H]4C(=O)N4CCN(CC(F)F)CC4)nc(N)n3n2)o1 [Example 297, (S)-(1-(7-amino-2-(5-methylfuran-2-yl)-[1,2,4]triazolo[1,5-a][1,3,5]triazin-5-yl)pyrrolidin-2-yl)(4-(2,2-difluoroethyl)piperazin-1-yl)methanone]"
7,9.34,Nc1nc(N[C@@H](Cc2ccccc2)C(=O)N2CCN(CC(F)(F)F)CC2)nc2nc(-c3ccco3)nn12 [Example 4]
8,7.36,"CCCCN1CCC(C2CCN(C(=O)[C@@H]3CCCN3c3nc(N)n4nc(-c5ccco5)nc4n3)CC2)CC1 [Example 265, (S)-(1-(7-amino-2-(furan-2-yl)-[1,2,4]triazolo[1,5-a][1,3,5]triazin-5-yl)pyrrolidin-2-yl)(1′-butyl-[4,4′-bipiperidin]-1-yl)methanone]"
9,7.82,"CC(C)[C@H](Nc1nc(N)n2nc(-c3ccco3)nc2n1)C(=O)N1CCN(Cc2ccccc2)CC1 [Example 58, (S)-2-((7-amino-2-(furan-2-yl)-[1,2,4]triazolo[1,5-a][1,3,5]triazin-5-yl)amino)-1-(4-benzylpiperazin-1-yl)-3-methylbutan-1-one]"
10,7.89,"Nc1nc(N2CCC[C@H]2C(=O)N2CCC(C(=O)N3CCCCC3)CC2)nc2nc(-c3ccco3)nn12 [Example 142, (1-((7-amino-2-(furan-2-yl)-[1,2,4]triazolo[1,5-a][1,3,5]triazin-5-yl)-L-prolyl)piperidin-4-yl)(piperidin-1-yl)methanone]"
11,8.10,"Nc1nc(N2CCC[C@H]2C(=O)N2CCN(CC(F)F)CC2)nc2sc(-c3ccco3)nc12 [Example 258, (S)-(1-(7-amino-2-(furan-2-yl)thiazolo[5,4-d]pyrimidin-5-yl)pyrrolidin-2-yl)(4-(2,2-difluoroethyl)piperazin-1-yl)methanone]"
12,8.70,"Cn1cc(N2CCN(C(=O)[C@@H]3CCCN3c3nc(N)n4nc(-c5ccco5)nc4n3)CC2)cn1 [Example 321, (S)-(1-(7-amino-2-(furan-2-yl)-[1,2,4]triazolo[1,5-a][1,3,5]triazin-5-yl)pyrrolidin-2-yl)(4-(1-methyl-1H-pyrazol-4-yl)piperazin-1-yl)methanone]"
13,7.55,"CC(C)(F)C(=O)N1CCN(C(=O)[C@@H]2CCCN2c2nc(N)n3nc(-c4ccco4)nc3n2)CC1 [Example 85, 1-(4-((7-amino-2-(furan-2-yl)-[1,2,4]triazolo[1,5-a][1,3,5]triazin-5-yl)-L-prolyl)piperazin-1-yl)-2-fluoro-2-methylpropan-1-one]"
14,7.13,"C[C@H](Nc1nc(N)c2nc(-c3ccco3)sc2n1)C(=O)N1CCN(C(=O)CC(C)(C)O)CC1 [Example 340, 1-(4-((7-amino-2-(furan-2-yl)thiazolo[5,4-d]pyrimidin-5-yl)-L-alanyl)piperazin-1-yl)-3-hydroxy-3-methylbutan-1-one]"
15,8.40,"CC(C)N1CCN(C(=O)[C@@H]2CCCN2c2nc(N)n3nc(-c4ccco4)nc3n2)CC1 [Example 136, (S)-(1-(7-amino-2-(furan-2-yl)-[1,2,4]triazolo[1,5-a][1,3,5]triazin-5-yl)pyrrolidin-2-yl)(4-isopropylpiperazin-1-yl)methanone]"
16,8.15,"CC(C)[C@H](Nc1nc(N)n2nc(-c3ccco3)nc2n1)C(=O)N1CCN(Cc2ccc(F)cc2F)CC1 [Example 57, (S)-2-((7-amino-2-(furan-2-yl)-[1,2,4]triazolo[1,5-a][1,3,5]triazin-5-yl)amino)-1-(4-(2,4-difluorobenzyl)piperazin-1-yl)-3-methylbutan-1-one]"
17,8.22,"Nc1nc(N2CC[C@H]2C(=O)N2CCN(CC(F)F)CC2)nc2nc(-c3ccco3)nn12 [Example 252, (S)-(1-(7-amino-2-(furan-2-yl)-[1,2,4]triazolo[1,5-a][1,3,5]triazin-5-yl)azetidin-2-yl)(4-(2,2-difluoroethyl)piperazin-1-yl)methanone]"
18,7.82,"CC(C)(F)CN1CCC(C2CCN(C(=O)[C@@H]3CCCN3c3nc(N)n4nc(-c5ccco5)nc4n3)CC2)CC1 [Example 245, (S)-(1-(7-amino-2-(furan-2-yl)-[1,2,4]triazolo[1,5-a][1,3,5]triazin-5-yl)pyrrolidin-2-yl)(1′-(2-fluoro-2-methylpropyl)-[4,4′-bipiperidin]-1-yl)methanone]"
19,8.05,"Nc1nc(N2CCC[C@H]2C(=O)N2CCN(c3cnccn3)CC2)nc2nc(-c3ccco3)nn12 [Example 126, (S)-(1-(7-amino-2-(furan-2-yl)-[1,2,4]triazolo[1,5-a][1,3,5]triazin-5-yl)pyrrolidin-2-yl)(4-(pyrazin-2-yl)piperazin-1-yl)methanone]"
20,8.15,"Nc1nc(N2CCC[C@H]2C(=O)N2CCCN(c3ccc(F)cc3F)CC2)nc2nc(-c3ccco3)nn12 [Example 276, (S)-(1-(7-amino-2-(furan-2-yl)-[1,2,4]triazolo[1,5-a][1,3,5]triazin-5-yl)pyrrolidin-2-yl)(4-(2,4-difluorophenyl)-1,4-diazepan-1-yl)methanone]"
21,9.00,"Cc1ccc(-c2nc3nc(N4CC[C@H]4C(=O)N4CCN(c5ncccn5)CC4)nc(N)n3n2)o1 [Example 210, (S)-(1-(7-amino-2-(5-methylfuran-2-yl)-[1,2,4]triazolo[1,5-a][1,3,5]triazin-5-yl)azetidin-2-yl)(4-(pyrimidin-2-yl)piperazin-1-yl)methanone]"
22,8.40,"Cc1ccc(-c2nc3nc(N4CCC[C@H]4C(=O)N4CCN(Cc5ccc(F)cc5F)CC4)nc(N)n3n2)o1 [Example 40, (S)-(1-(7-amino-2-(5-methylfuran-2-yl)-[1,2,4]triazolo[1,5-a][1,3,5]triazin-5-yl)pyrrolidin-2-yl)(4-(2,4-difluorobenzyl)piperazin-1-yl)methanone]"
23,7.77,"CCC(O)(CC)CN1CCN(C(=O)[C@@H]2CCN2c2nc(N)n3nc(-c4ccco4)nc3n2)CC1 [Example 347, (S)-(1-(7-amino-2-(furan-2-yl)-[1,2,4]triazolo[1,5-a][1,3,5]triazin-5-yl)azetidin-2-yl)(4-(2-ethyl-2-hydroxybutyl)piperazin-1-yl)methanone]"
24,7.92,"CC(C)(O)CC(=O)N1CCN(C(=O)[C@@H]2CCCN2c2nc(N)n3nc(-c4ccco4)nc3n2)CC1 [Example 229, 1-(4-((7-amino-2-(furan-2-yl)-[1,2,4]triazolo[1,5-a][1,3,5]triazin-5-yl)-L-prolyl)piperazin-1-yl)-3-hydroxy-3-methylbutan-1-one]"
25,8.15,"Nc1nc(N2CCC[C@H]2C(=O)N2CCC(N3CCC(F)(F)CC3)CC2)nc2nc(-c3ccco3)nn12 [Example 391, (S)-(1-(7-amino-2-(furan-2-yl)-[1,2,4]triazolo[1,5-a][1,3,5]triazin-5-yl)pyrrolidin-2-yl)(4,4-difluoro-[1,4′-bipiperidin]-1′-yl) methanone]"
26,8.52,"Cc1cccc(NC(=O)N2CCN(C(=O)[C@@H]3CCCN3c3nc(N)n4nc(-c5ccco5)nc4n3)CC2)c1 [Example 61, 4-((7-amino-2-(furan-2-yl)-[1,2,4]triazolo[1,5-a][1,3,5]triazin-5-yl)-L-prolyl)-N-(m-tolyl)piperazin-1-carboxamide]"
27,8.10,"Nc1nc(N2CCC[C@H]2C(=O)N2CCN(C3CCC(F)(F)CC3)CC2)nc2nc(-c3ccco3)nn12 [Example 56, (S)-(1-(7-amino-2-(furan-2-yl)-[1,2,4]triazolo[1,5-a][1,3,5]triazin-5-yl)pyrrolidin-2-yl)(4-(4,4-difluorocyclohexyl)piperazin-1-yl)methanone]"
28,7.72,"C[C@H](Nc1nc(N)n2nc(-c3ccco3)nc2n1)C(=O)N1CCN(CC(F)(F)C(F)F)CC1 [Example 318, (S)-2-((7-amino-2-(furan-2-yl)-[1,2,4]triazolo[1,5-a][1,3,5]triazin-5-yl)amino)-1-(4-(2,2,3,3-tetrafluoropropyl)piperazin-1-yl)propan-1-one]"
29,8.05,"C[C@H](Nc1nc(N)n2nc(-c3ccco3)nc2n1)C(=O)N1CCC(C2CCN(CC(C)(C)O)CC2)CC1 [Example 333, (S)-2-((7-amino-2-(furan-2-yl)-[1,2,4]triazolo[1,5-a][1,3,5]triazin-5-yl)amino)-1-(1′-(2-hydroxy-2-methylpropyl)-[4,4′-bipiperidin]-1-yl)propan-1-one]"
